Reference: patent US20090221441A1, “THREE-DIMENSIONAL CELLULAR ARRAY CHIP AND PLATFORM FOR TOXICOLOGY ASSAYS” (Rensselaer Polytechnic Institute, priority 2005, published 2009)
“Also recorded” adds a separate entry of the source.

Key:
[1] = Cytotoxicity of compounds and their P450-generated metabolites, Hep3B DataChip stamped with MetaChip; conditions: human
Method: (§1) The cytotoxicity of drugs (or drug metabolites) was determined by staining the slide containing the cells with a Live/Dead test kit (Molecular Probes) that produces a green fluorescent response from living cells. At the end of the 3-day culture period post stamping, the three-dimensional cell chip (DataChip) was rinsed three times in PBS for 5 min each. One mL of a dye solution containing 0.5 μM calcein AM was applied to each three-dimensional cell chip using a glass slide with 1 mm thick perimeter gasket acting as a barrier to prevent loss of the dye solution.
(§2) Following incubation for 50 minutes at room temperature, excess dye in the collagen-gel drops was removed by incubating the slides in a petri dish containing 16 mL of PBS for 30 min on a gyratory shaker at 60 rpm. The three-dimensional cell chip was dried thoroughly with nitrogen. The three-dimensional cell chip was scanned with the GenePix® Professional 4200A scanner equipped with blue laser and standard blue filter to determine the green fluorescent intensity and was quantified from the scanning image using GenePix Pro 6.0 (Molecular Devices Co.).
(§3) Percent live cells=(FReaction/FMax)×100
(§4) where FReaction is the green fluorescence intensity of the reaction spot and FMax is the green fluorescence intensity of untreated fully viable cells.
(§5) For efficient stamping, MTMOS-coated glass slides were prepared to contain a sol-gel barrier on the periphery of the slides.
(§6) To this end […] of methyltrimethoxysilane (MTMOS) sol was prepared by mixing 2 mL of MTMOS with 1 mL of HCl (10 mM) and sonicated for 10 min. The sol was spotted on the periphery of the MTMOS-coated slide and then the slide was baked in an oven for 30 min at 120° C.
(§7) The MetaChip was stored at −80° C. for 1 day prior to use. Cytotoxicity studies were performed by spotting 20 nL of test compound in distilled water (0-2 mM) onto the MetaChip spots and partially dried.
(§8) This was followed by stamping of the three-dimensional cell chip (DataChip) containing either MCF7 or Hep3B cells onto the MetaChip.
(§9) To this end, a MetaChip consisting of 20×54 alginate spots was prepared; each spot containing a single human P450 isoform (CYP1A2, CYP2D6, or CYP3A4), a mixture of the three isoforms, or no P450 as a test compound only control. Addition of test compounds was carried out by overlay spotting of solutions of these compounds onto the MetaChip, which was then stamped on top of the DataChip.
(§10) Using three DataChips in combination with three MetaChips, IC50 values for 27 compounds and their P450-generated metabolites against human Hep3B cells were determined. […] The three P450 isoforms were used along with an equimolar mixture of the three isoforms and a test compound only control without P450. The test compounds were added to the MetaChip, which was then stamped onto the DataChip and incubated for 6 h. This was followed by removing the DataChip, rinsing with growth medium, incubating in media for 3 days, and then stained for cell viability.

human Hep3B cells = experiment: in vitro
Method: as §1, §2, §3, §4, §5, §6, §7, §8, §9, §10

[2] = P450 activity determination with blue fluorogenic substrates in 384-well plate; assay type: biochemical, human
Method: To assess the intrinsic reactivity of P450s in alginate matrices, reactions were performed in wells of a 384-well plate. P450-containing alginate sol was prepared by dispensing 24 μL of P450 baculosomes (1 nmol P450/mL), 36 μL of distilled water, and 60 μL of alginate (2%) in distilled water. Five microliters of this solution were spotted onto 5 μL of the dried PLL-barium spot in a 384-well. Followed by storage of the P450-alginate gel drops at −80° C. for 1 day, 25 μL of blue fluorogenic substrates (BOMCC for CYP3A4 and EOMCC for CYP1A2 and CYP2D6) containing 250 μM NADP^+ and its regeneration system (8 mM glucose-6-phosphate and 1 U/mL glucose-6-phosphate dehydrogenase) in 50 mM potassium phosphate buffer (pH 8) were dispensed onto the thawed P450-alginate gel drop.
As a control, soluble P450 without alginate was also used. The blue fluorescent 7-hydroxycoumarin released by P450-catalyzed oxidation of BOMCC or EOMCC was monitored as a function of time using a BioAssay Reader HTS 7000 Plus (Perkin Elmer, Norwalk, Conn.) at an excitation wavelength of 430 nm and emission wavelength of 497 nm.

[3] = IC50, CYP1A2, Hep3B DataChip, MetaChip spots with CYP1A2
[4] = IC50, CYP2D6, Hep3B DataChip, MetaChip spots with CYP2D6
[5] = IC50, CYP3A4, Hep3B DataChip, MetaChip spots with CYP3A4
[6] = IC50, Mixture, Hep3B DataChip, equimolar mixture of CYP1A2, CYP2D6, CYP3A4
[7] = IC50, No P450, Hep3B DataChip, test compound only control without P450
[8] = Hep3B cells, compared with no P450
[9] = Soluble enzyme (control, in solution)

Row | Molecule | IC50 at 6 h [1, 3] [µM] | IC50 at 6 h [1, 4] [µM] | IC50 at 6 h [1, 5] [µM] | IC50 at 6 h [1, 6] [µM] | IC50 at 6 h [1, 7] [µM] | Activation or deactivation of the toxic response by CYP1A2 (human Hep3B cells) | Activation or deactivation of the toxic response by CYP2D6 (human Hep3B cells) | further results
1 | CC(=O)Nc1ccc(O)cc1 [Acetaminophen, acetaminophen] | 2590 ± 960 | > 1000 | 2770 ± 1240 | > 1000 | > 1000 | strongly activated |  | Activation or deactivation of the toxic response by CYP3A4 (human Hep3B cells): strongly activated; IC30 (human Hep3B cells): (IC30: 0.50 ± 0.02)
2 | CC(=O)Oc1ccccc1C(=O)O [Acetylsalicylic Acid] | > 1000 | > 1000 | > 1000 | > 1000 | > 1000 |  |  | 
3 | CN(C)CCC=C1c2ccccc2CCc2ccccc21 [Amitriptyline] | 75 ± 14.2 | 55.9 ± 10.1 | 63.4 ± 12.1 | 75.6 ± 9.89 | 31.7 ± 1.98 | moderately to weakly deactivated |  | 
4 | CCN(CC)CCCC(C)Nc1ccnc2cc(Cl)ccc12 (stereo not drawn) [Chloroquine] | 184 ± 19.9 | 112 ± 22.3 | 79.7 ± 12.8 | 94.5 ± 14.1 | 189 ± 25.2 |  |  | Activation or deactivation of the toxic response by CYP3A4 (human Hep3B cells; [8]): deactivated
5 | O=P1(N(CCCl)CCCl)NCCCO1 (stereo not drawn) [Cyclophosphamide, cyclophosphamide] | > 1000 | > 1000 | 2110 ± 600 | > 1000 | > 1000 |  |  | Activation or deactivation of the toxic response by CYP3A4 (human Hep3B cells; [8]): strongly activated
6 | Nc1ccn([C@@H]2O[C@H](CO)[C@@H](O)[C@@H]2O)c(=O)n1 [Cytarabine] |  |  |  |  |  | moderately to weakly deactivated | deactivating | 
7 | C[C@H]1O[C@@H](O[C@H]2[C@@H](O)C[C@H](O[C@H]3[C@@H](O)C[C@H](O[C@H]4CC[C@@]5(C)[C@H](CC[C@@H]6[C@@H]5C[C@@H](O)[C@]5(C)[C@@H](C7=CC(=O)OC7)CC[C@]65O)C4)O[C@@H]3C)O[C@@H]2C)C[C@H](O)[C@@H]1O [Digoxin] | 1.29 ± 0.09 | 0.43 ± 0.03 | 1.37 ± 0.05 | 0.59 ± 0.03 | 0.8 ± 0.09 |  |  | IC50 at 6 h ([1]; IC50 values, Hep3B DataChip): < 1 µM
8 | NNC(=O)c1ccncc1 [Isoniazid] | 353 ± 89.9 | > 1000 | > 1000 | > 1000 | > 1000 |  |  | 
9 | Cl[C@H]1[C@H](Cl)[C@@H](Cl)[C@@H](Cl)[C@H](Cl)[C@H]1Cl [Lindane] | 2730 ± 1080 | 5150 ± 1960 | 523 ± 133 | > 1000 | 394 ± 132 | moderately to weakly deactivated | deactivating lindane (strongly) | Activation or deactivation of the toxic response by the mixture of the three P450 isoforms (human Hep3B cells): greater deactivation in the mixture than with any of the three individual isoforms
10 | CN(Cc1cnc2nc(N)nc(N)c2n1)c1ccc(C(=O)N[C@@H](CCC(=O)O)C(=O)O)cc1 [Methotrexate] | 2.79 ± 0.73 | 38.3 ± 12.1 | 10.9 ± 2.76 | 8 ± 2.97 | 2.41 ± 0.55 |  | deactivating | Activation or deactivation of the toxic response by CYP3A4 (human Hep3B cells): deactivated
11 | CN1CCCC1c1cccnc1 (stereo not drawn) [Nicotine] |  |  |  |  |  | moderately to weakly deactivated | deactivating | IC50 ([1]; IC50, CYP1A2): 90.8 ± 20.3 µM; IC50 ([1]; IC50, CYP2D6): 158 ± 39.5 µM; IC50 ([1]; IC50, CYP3A4): 647 ± 191 µM; IC50 ([1]; IC50, Mixture): 377 ± 147 µM; IC50 ([1]; IC50, No P450): 29.5 ± 4.12 µM; Activation or deactivation of the toxic response by CYP3A4 (human Hep3B cells): deactivated chloroquine, quinidine, nicotine (strongly)
12 | CC(=O)O[C@H]1C(=O)[C@@]2(C)[C@H]([C@H](OC(=O)c3ccccc3)[C@]3(O)C[C@H](OC(=O)[C@H](O)[C@@H](NC(=O)c4ccccc4)c4ccccc4)C(C)=C1C3(C)C)[C@]1(OC(C)=O)CO[C@@H]1C[C@@H]2O [Paclitaxel, paclitaxel] |  |  |  |  |  |  | deactivating | 
13 | C[n+]1ccc(-c2cc[n+](C)cc2)cc1 [Paraquat, paraquat] |  |  |  |  |  |  |  | IC50 [1, 3]: 5.06 ± 0.29 µM; IC50 [1, 4]: 20.8 ± 1.8 µM; IC50 [1, 5]: 52 ± 9.12 µM; IC50 [1, 6]: 44.2 ± 6.05 µM; IC50 [1, 7]: 79.8 ± 12.7 µM; Activation or deactivation of the toxic response by the mixture of the three P450 isoforms (human Hep3B cells; Hep3B cells): activation; Activation or deactivation of the toxic response by CYP1A2 (human Hep3B cells; [8]): activation; Activation or deactivation of the toxic response by CYP2D6 (human Hep3B cells; [8]): activation; also recorded: activated
14 | Oc1c(Cl)c(Cl)c(Cl)c(Cl)c1Cl [Pentachlorophenol] |  |  |  |  |  |  |  | IC50 ([1]; IC50, CYP1A2): > 1000 µM; IC50 ([1]; IC50, CYP2D6): > 1000 µM; IC50 ([1]; IC50, CYP3A4): > 1000 µM; IC50 ([1]; IC50, Mixture): 489 ± 272 µM; IC50 ([1]; IC50, No P450): > 1000 µM
15 | C=C[C@H]1C[N@@]2CC[C@H]1C[C@@H]2[C@@H](O)c1ccnc2ccc(OC)cc12 [Quinidine] | 92.9 ± 7.5 | 106 ± 9.05 | 126 ± 10.2 | 246 ± 39.4 | 19.2 ± 2.36 |  |  | Activation or deactivation of the toxic response by the mixture of the three P450 isoforms (human Hep3B cells; Hep3B cells): greater deactivation in the mixture than with any of the three individual isoforms; Activation or deactivation of the toxic response by CYP1A2 (human Hep3B cells; [8]): moderately to weakly deactivated; Activation or deactivation of the toxic response by CYP2D6 (human Hep3B cells; [8]): deactivating; Activation or deactivation of the toxic response by CYP3A4 (human Hep3B cells; [8]): deactivated
16 | O=c1[nH]c(=O)n(C2CCCO2)cc1F (stereo not drawn) [Tegafur, 5-fluoro-1-(tetrahydro-2-furfuryl)-uracil] | > 1000 | > 1000 | 54800 ± 21400 | > 1000 | > 1000 |  |  | 
17 | Cn1c(=O)c2[nH]cnc2n(C)c1=O [Theophylline] | 239 ± 56.4 | 119 ± 26.3 | 36.9 ± 11.2 | 84.3 ± 22.1 | 38.4 ± 8.92 | moderately to weakly deactivated | deactivating | 
18 | CC(=O)CC(c1ccccc1)c1c(O)c2ccccc2oc1=O (stereo not drawn) [Warfarin] |  |  |  |  |  |  |  | IC50 at 6 h ([1]; IC50, CYP1A2): > 1000 µM; IC50 at 6 h ([1]; IC50, CYP2D6): > 1000 µM; IC50 at 6 h ([1]; IC50, CYP3A4): > 1000 µM; IC50 at 6 h ([1]; IC50, Mixture): > 1000 µM; IC50 at 6 h ([1]; IC50, No P450): > 1000 µM
19 | CYP3A4: human P450 isoform (baculosomes), soluble or encapsulated in alginate; assayed with BOMCC |  |  |  |  |  |  |  | Km ([2]; In Alginate): 35.4 ± 8.98 µM; kcat ([2]; In Alginate): 4.65 ± 0.87 min⁻¹; Km [2, 9]: 33.7 ± 2.94 µM; kcat [2, 9]: 7.51 ± 0.48 min⁻¹
